The record followed here is patent publication US4028351A, “Method for the preparation of derivatives of spiro (4,5)-decane and derivatives thus obtained” (Buskine S.A., priority 1971, dated 1977).

Usually LD50 stands for the dose at which mortality reaches 50%.

Data set [1] is described as follows: Heated plate test (mouse), analgesic activity. Type of data set: in vivo. The text has this:
a) the data of analgesic activity are expressed as the variation % of the
stimulation threshold in the mouse;

A further data set in a line: LD50 (rat) i.p. Particulars: in vivo, ip.
The subject of the next data set is kaolin induced oedema. Nature of the data set: Kaolin induced oedema (rat), anti-inflammatory activity. Format: in vivo, Wistar rat. The text has this: b) the data of anti-inflammatory activity are expressed as the volume
variation of the kaolin induced oedema in the Wistar rat;

Data set [2] has as its system Acetylcholine broncho-spasm. In words: Broncho-spasm antagonist activity (Konzett and Roessler technique), acetylcholine. Type of data set: in vivo, guinea pigs. Particulars: Cavia porcellus, iv, guinea pig, i.v., read-out: Broncho-spasm 50% approx. inhibiting dose, Acetylcholine. The protocol:
(§1) c) the experiments on the antagonist activity against the bronochospasm
(§2) were carried out on guinea pigs, according to the technique taught by
(§3) Konzett and Roessler (Arch. Exper. Pathol. Pharm., 71, (1940), 195).

For a further data set, the system named is Histamine broncho-spasm. Nature of the data set: Broncho-spasm antagonist activity (Konzett and Roessler technique), histamine. Type of data set: in vivo, guinea pigs. Particulars: Cavia porcellus, iv, guinea pig, i.v., read-out: Broncho-spasm 50% approx. inhibiting dose, Histamine. As for the experimental part:
as §1, §2, §3

A further data set has as its system Serotonine broncho-spasm. In words: Broncho-spasm antagonist activity (Konzett and Roessler technique), serotonine. Format: in vivo, guinea pigs. Particulars: Cavia porcellus, iv, guinea pig, i.v., read-out: Broncho-spasm 50% approx. inhibiting dose, Serotonine. As for the experimental part:
as §1, §2, §3

Setting [3] is: total dose 310 mg/kg per os (48 hours).
[4] abbreviates: total dose 440 mg/kg per os (48 hours).

For `O=C1NCC2(CCN(CCc3ccc4c(c3)OCO4)CC2)O1`, the “Heated plate test, % increase of threshold value” (“Heated plate test, % increase” for short) in data set [1] (40 mg/kg i.p.) amounted to 80%. In addition, in the data set “LD50 (rat) i.p.”, the 50% lethal dose (LD50) was determined as 235 mg/kg. The “Kaolin induced oedema, volume variation %” value in the data set on kaolin induced oedema (setting [3]) is on record as 39.5%. For the same compound, the ED50 in data set [2] is more than 2.5 mg/kg; with Histamine broncho-spasm, 0.2 mg/kg; in the data set with Serotonine broncho-spasm it was more than 2.5 mg/kg.

Turning to `O=C1NCC2(CCN(CCc3ccc(F)cc3)CC2)O1`, the “Heated plate test, % increase” value in data set [1] (10 mg/kg i.p.) was found to be 41.7%. The LD50 in the data set “LD50 (rat) i.p.” worked out at 282 mg/kg. The “Kaolin induced oedema, volume variation %” value in the data set with kaolin induced oedema (total dose 70 mg/kg per os (48 hours)) was determined as 19.4%. Moreover, the ED50 in data set [2] came to 2 mg/kg; in the data set on Histamine broncho-spasm, 0.2 mg/kg; in the data set with Serotonine broncho-spasm, 0.5 mg/kg.

Consider `O=C1NCC2(CCN(CCOc3ccccc3)CC2)O1`, for which the “Heated plate test, % increase” value in data set [1] (100 mg/kg i.p.) is on record as 49%. The LD50 in “LD50 (rat) i.p.” is 344 mg/kg. Also, the “Kaolin induced oedema, volume variation %” value with kaolin induced oedema (setting [4]) was found to be 26.3%. In addition, the ED50 (in data set [2]; with Histamine broncho-spasm; in the data set on Serotonine broncho-spasm) was more than 0.5 mg/kg in each case.

Consider `O=C1NCC2(CCN(C(c3ccccc3)c3ccccc3)CC2)O1`, for which, in data set [1] (100 mg/kg i.p.), the “Heated plate test, % increase” value amounted to 119%. The 50% lethal dose (LD50) in “LD50 (rat) i.p.” came to 346 mg/kg. Besides, the “Kaolin induced oedema, volume variation %” value with kaolin induced oedema (setting [4]) is reported as 4.6%. The ED50 (in data set [2]; in the data set on Histamine broncho-spasm; with Serotonine broncho-spasm) was more than 0.5 mg/kg throughout.

With `O=C1NCC2(CCN(CCc3cccc(C(F)(F)F)c3)CC2)O1`, the “Heated plate test, % increase” value in data set [1] (50 mg/kg i.p.) was 45.6%. Also, the 50% lethal dose (LD50) in “LD50 (rat) i.p.” was determined as 344 mg/kg. In addition, the “Kaolin induced oedema, volume variation %” value in the data set on kaolin induced oedema (setting [3]) stood at 10%. For the same compound, the ED50 in data set [2] is more than 0.5 mg/kg; in the data set on Histamine broncho-spasm, 0.5 mg/kg; in the data set on Serotonine broncho-spasm, more than 0.5 mg/kg.

Turning to `O=C1NCC2(CCN(Cc3ccccc3)CC2)O1`, the “Heated plate test, % increase” value in data set [1] (100 mg/kg i.p.) is reported as 93%. In the data set “LD50 (rat) i.p.”, this compound gave a 50% lethal dose (LD50) of 319 mg/kg. For the same compound, the “Kaolin induced oedema, volume variation %” value in the data set on kaolin induced oedema (total dose 340 mg/kg per os (48 hours)) is listed as 9.4%. In addition, the ED50 (in data set [2]; in the data set with Histamine broncho-spasm; in the data set with Serotonine broncho-spasm) was more than 0.5 mg/kg throughout.

Turning to `O=C1NCC2(CCN(CCc3ccccc3)CC2)O1`, the “Heated plate test, % increase” value in data set [1] (25 mg/kg i.p.) turned out to be 63.4%. This compound had an LD50 in “LD50 (rat) i.p.” of 230 mg/kg. Moreover, the “Kaolin induced oedema, volume variation %” value with kaolin induced oedema (total dose 190 mg/kg per os (48 hours)) is reported as 16.1%. For the same compound, the ED50 in data set [2] worked out at 2 mg/kg; in the data set on Histamine broncho-spasm it was 0.5 mg/kg; in the data set with Serotonine broncho-spasm, 0.2 mg/kg.
